Experimental data published in patent publication US20240026461A1, “BCL10 MUTATIONS AS BIOMARKERS FOR TARGETED THERAPY IN B CELL LYMPHOMAS” (priority 2022, published 2024).

Assays:
[1] = test system: HBL1^E140X; assay: Growth inhibition assay (CellTiter Glo), HBL1 cells expressing BCL10 E140X; assay type: cell-based; conditions: Homo sapiens, 96 h, read-out: IC50, growth inhibition, MALT1 inhibitors
Description: (§1) DLBCL cell lines were cultured in exponential condition and the cell growth was determined by CellTiter Glo (Promega). 3000-5000 cells were seeded and cultured in each well of 384 well plate for 96 h and treated with compounds every 48 h. Luminescence was read at the endpoint with the Synergy NEO microplate reader (BioTek). The value of compound treated cells was normalized to their vehicle treated controls and then used to calculate IC50 in GraphPad Prism (RRID:SCR_002798).
(§2) Given the distinct functional profiles, CARD11 dependencies, and MALT1 activation effects of the BCL10 CARD and truncation mutants, the inventors designed experiments to evaluate whether, and to what extent, these mutant BCL10 proteins might confer BTK inhibitor resistance. Isogenic ABC-DLBCL cells expressing BCL10WT, BCL10^R58Q and BCL10^E140X proteins were treated with escalating doses of three chemically distinct covalent BTK inhibitors: ibrutinib, acalabrutinib, or zanubrutinib. The cellular proliferation rates of the treated cells were measured using an ATP fluorescence assay after 96 hours of drug exposure.
(§3) Isogenic BCL10^WT, BCL10^R58Q and BCL10^E140X ABC-DLBCLs were exposed to increasing concentrations of each of these compounds for 96 hours.

[2] = test system: IL-6 secretion by OCI-Ly3 ABC-DLBCL cells; assay: IL-6 secretion assay using OCI-Ly3 cells (MSD); assay type: cell-based; conditions: Homo sapiens, 24 h, read-out: IC50, IL6 secretion
Description: FIG. 21A. Chemical structure of JNJ-67690246. FIG. 21B. IC50 values for JNJ-67690246 in biochemical enzymatic and cellular cytokine secretion assays. MALT1 proteolytic IC50: purified recombinant MALT1 was preincubated for 50 min at RT with JNJ-67690246, substrate Ac-LRSR-AMC was then incubated for 4 h. MALT1 proteolytic activity was determined by measuring the increase of AMC fluorescence. […] FIG. 21C. Table for IC50 values of three different MALT1 inhibitors measured in HBL1 and OCI-Ly10 cells expressing WT and mutant BCL10. D-F. MALT1 activity measured in OCI-Ly10 GloSensor reporter cells treated with MALT1 inhibitors. OCI-Ly10 MALT1 GloSensor cells were stably expressing wildtype and mutant BCL10, then treated with MALT1 inhibitors of different range (10-0.3 uM). FIG. 21G-I. NF-κB activity measured in NF-κB-RE-luciferase reporter cell lines treated with MALT1 inhibitors. HBL1 NF-κB reporter cells lines were stably expressing wildtype and mutant BCL10, and then treated with MALT1 inhibitors of different range (10-0.3 uM). NF-xB activity was performed 24 h after treatment. Error bars indicate SEM with 4 biological replicates. p<0.05; “p<0.01; “<0.001; ****p<0.0001; ns, not significant.
Secretion of the IL-6 and IL-10 cytokines by OCI-Ly3 ABC-DLBCL cells was measured using a Mesoscale assay (MSD). MALT1 inhibition results in a decrease of IL-6/10 secretion. […] Plates were read on a SECTOR imager.

[3] = test system: OCI-LY10^E140X; assay: Growth inhibition assay (CellTiter Glo), OCI-Ly10 cells expressing BCL10 E140X; assay type: cell-based; conditions: Homo sapiens, 96 h, read-out: IC50, growth inhibition, MALT1 inhibitors
Description: as §1, §2, §3

[4] = test system: isogenic ABC-DLBCL cells expressing BCL10^WT, BCL10^R58Q and BCL10^E140X; assay: Growth inhibition of isogenic ABC-DLBCL cells, response described in words; assay type: cell-based, human; conditions: 96 hours
Description: as §1, §2, §3

[5] = test system: OCI-LY10^WT; assay: Growth inhibition assay (CellTiter Glo), OCI-Ly10 cells expressing BCL10 WT; assay type: cell-based; conditions: Homo sapiens, 96 h, read-out: IC50, growth inhibition, MALT1 inhibitors
Description: as §1, §2, §3

IC50 [2]: 0.06 µM
IC50 [3]: 0.27 ± 0.02 µM
IC50 [5]: 0.32 ± 0.07 µM
Structure (SMILES): Cc1nc(-n2nccn2)c(Cl)cc1NC(=O)c1cnn(-c2cccc3c(=O)[nH]ccc23)c1C(F)(F)F [JNJ-67690246]
IC50 [1]: 0.15 ± 0.02 µM
growth response in words ([4]; BCL10^R58Q ABC-DLBCL cells): generally sensitive
growth response in words ([4]; BCL10^WT ABC-DLBCL cells): generally sensitive
